How the values were obtained:
[1] = tested on: neutrophils; test: Induction of reactive oxygen burst by neutrophils; assay type: cell-based, human; conditions: 1 ng/ml to 100 μg/ml; 15 min; DHE, flow cytometry
Procedure: Neutrophils were isolated from fresh blood of a healthy human donor by lysis of a red blood cell pellet that had been obtained by Ficoll-Paque sedimentation. The neutrophils (˜4×10^6 cells/ml) were incubated with 10 μg/ml dihydroethidium (DHE) (Sigma-Aldrich) in complete culture medium at 37° C. for 15 min alongside an aliquot of unstained cells to be tested as unstained control. This incubation was followed by treatment with Compound 1 at a range of concentrations (0, 1 ng/ml, 10 ng/ml, 100 ng/ml, 1 μg/ml, 10 μg/ml, 100 μg/ml) for 15 min. The generation of reactive oxygen species following incubation was determined using a FACS Canto flow cytometer to measure fluorescence due to oxidation of DHE to the ethidium ion.

[2] = tested on: HaCaT cells; test: HaCaT proliferation (MTT); assay type: cell-based, human; parameters: dose or concentration left out as unconfirmed; conditions: 24, 48, 120 and 168 hr; p<0.01
Excerpt: The proliferation experiment assessed the effects of the two compounds on HaCaT proliferation (as measured by MTT) in the culture system at 4 time periods (24, 48, 120 and 168 hr).

[3] = tested on: infected bone wound; infectious vasculitis in the ear; test: Veterinary case studies 8 and 9, tree kangaroo wounds; assay type: in vivo, Dendrolagus lumholtzi
Procedure: (§1) Seven dogs (Canis lupus familiaris) and one tree kangaroo (Dendrolagus humholzii) with chronic, non-healing wounds that were unresponsive to current veterinary standards-of-care for these indications were treated with Compound 1 by independent veterinarians. A second tree kangaroo and a spectacled flying fox (Pteropus conspicillatus) with wounds unsuited for initial treatment with current standards-of-care were also treated with Compound 1. All cases were managed as open wounds without the use of dressings or other bandaging during the course of treatment with Compound 1 and the subsequent period of wound resolution. Unless stated in individual case studies, no concomitant medications were used over the course of treatments with Compound 1.
The patient was treated for 1 month with injectable antibiotics ceftazidime (Fortum) and trimethoprim sulphamethoxazole (TMS). […] Within 10 minutes of the application of Compound 1 gel there was a purulent discharge from the treated area. • On presentation 8 days after the first treatment a purulent discharge was oozing from 2 of the 3 wounds on the leg. The other wound (smallest lesion on the heal) had contracted and commenced healing. A further treatment of 0.15 mL of 5 mg/mL gel formulation of Compound 1 was used to treat each of the two open wounds (one over the ankle joint, the other on the base of the foot pad). A slow IV. infusion of sodium iodide was also given. • A further 15 days later (23 days after initial treatment) several mLs of thick purulent pus was squeezed from the wound on the pad of the foot before forcing 0.15 mL of 5 mg/mL gel formulation of Compound 1 into the drained wound sinus. • One week later there was significant improvement. in the infection. A small piece of bone was removed from the hole in the foot pad. There was no pus evident but there was a serous discharge. A further 0.2 mL. of the Compound 1 gel was applied to each of lesions, one over the ankle, the other underneath the foot. A slow IV infusion of sodium iodide was also delivered. Limb is now weight bearing. but the heal and foot pad is still very firm with inflammation and the animal's gait is very uneven and strongly favouring the undamaged hind leg. • A further 15 days later the wound over the ankle joint had fully closed and hair was growing back. The wound on the heal of the foot pad had contracted to less than 50% of its size at the previous visit and the surrounding skin and tissue is soft, pliable and normal.
Case notes: • The patient presented as a young injured animal found in the wild. • Patient was very weak, dehydrated and anaemic. […] Patient was placed on fluid therapy and medicated with anti-nausea drug maropitant citrate (cerenia) and two injectable antibiotic formulations Tribacteral (trimethoprim, sulfadiazine) and ceftazidime (fortum). • After 9 days on a fluid drip the patient's condition had improved but there was trauma to the right ear and likely infectious vasculitis and gangrene. Surgery was not possible because of significant anaesthetic risk due to the patient's highly compromised condition. Instead, treatment with a gel formulation of Compound 1 was initiated. • Three treatments of 0.1 mL of 5 mg/mL strength Compound 1 gel were applied to the affected area at 7 day intervals. The only concurrent medication during this time was the cephalosporin antibiotics deftazidime (fortum). • At 7 days after the first treatment of Compound 1 gel, a tightly adhering eschar covered the wound surface.

[4] = tested on: chronic, non-healing wounds; test: Veterinary clinical treatment of non-healing and difficult wounds, 10 pet animals (overall); assay type: in vivo, dogs, tree kangaroos, spectacled flying fox; conditions: eight completed cases; open wounds, no dressings
Procedure: Compound 1 has been used to treat to heal difficult wounds in 10 pet (i.e. privately owned and cared for) animals with the aim of improving second intention wound healing
as §1
Case and treatment notes for each of these patients are summarised below. Note that the return presentation of these animals to the treating veterinarians was often irregular and wound healing outcomes may have occurred well before the return assessment visits.

[5] = Case 8, 15 days after the fourth application

CC=C(C)C(=O)OC1C(C)C2(O)C(C3OC3(CO)C(O)C3(O)C(=O)C(C)=CC32)C2C(C)(C)C12OC(=O)C(C)CC (stereo not shown) [Compound 1, 12-tigloyl-13-(2-methylbutanoyl)-6,7-epoxy-4,5,9,12,13,20-hexahydroxy-1-tigliaen-3-one]
production of reactive oxygen species (ROS) [1]: induced the significant production of reactive oxygen species (ROS) in a dose-dependent manner | proliferation of HaCaT cells (MTT) vs control with no compound [2]: increasing proliferation | time to purulent discharge from the treated area ([3]; Case 8, tree kangaroo, infected bone wound, first application 0.1 mL gel 5 mg/mL per lesion): ≤ 10 min | wound outcome, wound over the ankle joint ([3]; Case 8, 4 applications gel 5 mg/mL, 15 days after the fourth application): fully closed | limb function [3, 5]: fully weight bearing | wound on the heal of the foot pad, % of its size at the previous visit [3, 5]: less than 50% | reduction of wound area ([3]; Case 9, tree kangaroo, ear, 3 x 0.1 mL gel 5 mg/mL at 7 day intervals, 14 days after initial treatment): approximately 50% | wound status ([3]; Case 9, 25 days): healthy tissue was present over the entire area of the wound | wound outcome ([3]; Case 9, 67 days): totally resolved and there was full hair coverage over the ear | wound resolution [4]: effective wound resolution with minimal scarring

From patent US10822317B2, “Methods and compositions for wound healing” (QBiotics Limited, priority 2013, dated 2020)
